Target: T1, BCR-NTRK1 BaF3 cells (Homo sapiens, UniProt P04629)
T1 construct: fused on or other part: P11274 (Breakpoint cluster region protein)
Experiment: BaF3 BCR-NTRK1 cell proliferation assay (ATPlite)
Format: cell-based
Settings: read-out: Inhibition of Cell Proliferation IC50, BCR/BaF3 TrkA
Procedure, shortened: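 Growth inhibition over 3 days at 37 °C; IC50 from ATPlite luminescence, 8 concentrations (1:3 steps, max 10 μM). BaF3 fusion lines were tested without IL-3.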

T1 sequence (P04629 510-781): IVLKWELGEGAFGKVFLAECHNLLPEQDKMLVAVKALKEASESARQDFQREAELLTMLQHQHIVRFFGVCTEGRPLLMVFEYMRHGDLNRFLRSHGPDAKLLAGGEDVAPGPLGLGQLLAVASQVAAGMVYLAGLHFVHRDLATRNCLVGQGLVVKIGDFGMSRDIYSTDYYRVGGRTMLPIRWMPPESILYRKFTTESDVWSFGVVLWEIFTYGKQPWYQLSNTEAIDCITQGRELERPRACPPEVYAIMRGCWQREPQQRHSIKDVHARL

| Compound | IC50 [nM] |
| --- | --- |
| COc1ccc(Nc2ccc(Cc3c[nH]c4ncnc(C5CC5)c34)c(F)n2)cn1 [Compound P-4023, [5-(4-cyclopropyl-7H-pyrrolo[2,3-d]pyrimidin-5-ylmethyl)-6-fluoro-pyridin-2-yl]-(6-methoxy-pyridin-3-yl)-amine] | < 100 |
| CCOc1ccc(Nc2ccc(C(=O)c3c[nH]c4ncnc(OC)c34)c(F)n2)cn1 [Compound P-4024, [6-(6-Ethoxy-pyridin-3-ylamino)-2-fluoro-pyridin-3-yl]-(4-methoxy-7H-pyrrolo[2,3-d]pyrimidin-5-yl)-methanone] | < 100 |
| CCOc1ncnc2[nH]cc(C(=O)c3ccc(Nc4ccc(OC)nc4)nc3F)c12 [Compound P-4025, (4-Ethoxy-7H-pyrrolo[2,3-d]pyrimidin-5-yl)-[2-fluoro-6-(6-methoxy-pyridin-3-ylamino)-pyridin-3-yl]-methanone] | < 100 |
| CCOc1ccc(Nc2ccc(Cc3c[nH]c4ncnc(C5CC5)c34)c(F)n2)cn1 [Compound P-4026, [5-(4-Cyclopropyl-7H-pyrrolo[2,3-d]pyrimidin-5-ylmethyl)-6-fluoro-pyridin-2-yl]-(6-ethoxy-pyridin-3-yl)-amine] | < 100 |
| CCOc1ccc(Nc2ccc(C(=O)c3c[nH]c4ncnc(C5CC5)c34)c(F)n2)cn1 [Compound P-4027, (4-Cyclopropyl-7H-pyrrolo[2,3-d]pyrimidin-5-yl)-[6-(6-ethoxy-pyridin-3-ylamino)-2-fluoro-pyridin-3-yl]-methanone] | < 100 |
| CCc1ccc(Nc2ccc(Cc3c[nH]c4ncnc(C5CC5)c34)c(F)n2)cn1 [Compound P-4028, [5-(4-Cyclopropyl-7H-pyrrolo[2,3-d]pyrimidin-5-ylmethyl)-6-fluoro-pyridin-2-yl]-(6-ethyl-pyridin-3-yl)-amine] | < 10 |
| CCc1ccc(Nc2ccc(C(=O)c3c[nH]c4ncnc(C5CC5)c34)c(F)n2)cn1 [Compound P-4029, (4-Cyclopropyl-7H-pyrrolo[2,3-d]pyrimidin-5-yl)-[6-(6-ethyl-pyridin-3-ylamino)-2-fluoro-pyridin-3-yl]-methanone] | < 10 |

Other lines, results leading:

| IC50 [nM] | Compound |
| --- | --- |
| < 1000 | Cc1ccc(Nc2ccc(Cc3c[nH]c4ncnc(C5CC5)c34)c(F)n2)cn1 [Compound P-4030, [5-(4-Cyclopropyl-7H-pyrrolo[2,3-d]pyrimidin-5-ylmethyl)-6-fluoro-pyridin-2-yl]-(6-methyl-pyridin-3-yl)-amine] |
| < 100 | Cc1ccc(Nc2ccc(C(=O)c3c[nH]c4ncnc(C5CC5)c34)c(F)n2)cn1 [Compound P-4031, (4-Cyclopropyl-7H-pyrrolo[2,3-d]pyrimidin-5-yl)-[2-fluoro-6-(6-methyl-pyridin-3-ylamino)-pyridin-3-yl]-methanone] |
| < 100 | CCOc1ccc(Nc2ccc(C(=O)c3c[nH]c4ncnc(C)c34)c(F)n2)cn1 [Compound P-4032, [6-(6-Ethoxy-pyridin-3-ylamino)-2-fluoro-pyridin-3-yl]-(4-methyl-7H-pyrrolo[2,3-d]pyrimidin-5-yl)-methanone] |
| < 1000 | CCn1cc(Nc2ccc(Cc3c[nH]c4ncnc(C5CC5)c34)c(F)n2)cn1 [Compound P-4036, [5-(4-Cyclopropyl-7H-pyrrolo[2,3-d]pyrimidin-5-ylmethyl)-6-fluoro-pyridin-2-yl]-(1-ethyl-1H-pyrazol-4-yl)-amine] |
| < 100 | CCn1cc(Nc2ccc(C(=O)c3c[nH]c4ncnc(C5CC5)c34)c(F)n2)cn1 [Compound P-4037, (4-Cyclopropyl-7H-pyrrolo[2,3-d]pyrimidin-5-yl)-[6-(1-ethyl-1H-pyrazol-4-ylamino)-2-fluoro-pyridin-3-yl]-methanone] |
| < 1000 | Cc1cncc(Nc2ccc(Cc3c[nH]c4ncnc(C5CC5)c34)c(F)n2)c1 [Compound P-4038, [5-(4-Cyclopropyl-7H-pyrrolo[2,3-d]pyrimidin-5-ylmethyl)-6-fluoro-pyridin-2-yl]-(5-methyl-pyridin-3-yl)-amine] |
| < 100 | Cc1cncc(Nc2ccc(C(=O)c3c[nH]c4ncnc(C5CC5)c34)c(F)n2)c1 [Compound P-4039, (4-Cyclopropyl-7H-pyrrolo[2,3-d]pyrimidin-5-yl)-[2-fluoro-6-(5-methyl-pyridin-3-ylamino)-pyridin-3-yl]-methanone] |
| < 1000 | Fc1nc(NC2CCC(F)(F)CC2)ccc1Cc1c[nH]c2ncnc(NCC(F)(F)F)c12 [Compound P-4128, 5-[[6-[(4,4-difluorocyclohexyl)amino]-2-fluoro-3-pyridyl]methyl]-N-(2,2,2-trifluoroethyl)-7H-pyrrolo[2,3-d]pyrimidin-4-amine] |
| < 1000 | Fc1nc(NC2CCC(F)(F)CC2)ccc1Cc1c[nH]c2ncnc(NC3CC3)c12 [Compound P-4129, N-cyclopropyl-5-[[6-[(4,4-difluorocyclohexyl)amino]-2-fluoro-3-pyridyl]methyl]-7H-pyrrolo[2,3-d]pyrimidin-4-amine] |
| < 100 | Fc1nc(Nc2ccc(C3CC3)nc2)ccc1Cc1c[nH]c2ncnc(NCC(F)(F)F)c12 [Compound P-4130, 5-[[6-[(6-cyclopropyl-3-pyridyl)amino]-2-fluoro-3-pyridyl]methyl]-N-(2,2,2-trifluoroethyl)-7H-pyrrolo[2,3-d]pyrimidin-4-amine] |

Source: patent US8901118B2, “Compounds and methods for kinase modulation, and indications therefor” (Plexxikon Inc., priority 2010, dated 2014)
